Laboratory results: ChEMBL document CHEMBL2074093, “The predominant contribution of oligopeptide transporter PepT1 to intestinal absorption of beta-lactam antibiotics in the rat small intestine” (J Pharm Pharmacol, 1997)

biological target: T1, Solute carrier family 15 member 1 (Rattus norvegicus) (UniProt P51574); experiment: TP_TRANSPORTER: uptake in Xenopus laevis oocytes; format: functional, cell-based; conditions: Oocyte
T1 sequence (whole entry): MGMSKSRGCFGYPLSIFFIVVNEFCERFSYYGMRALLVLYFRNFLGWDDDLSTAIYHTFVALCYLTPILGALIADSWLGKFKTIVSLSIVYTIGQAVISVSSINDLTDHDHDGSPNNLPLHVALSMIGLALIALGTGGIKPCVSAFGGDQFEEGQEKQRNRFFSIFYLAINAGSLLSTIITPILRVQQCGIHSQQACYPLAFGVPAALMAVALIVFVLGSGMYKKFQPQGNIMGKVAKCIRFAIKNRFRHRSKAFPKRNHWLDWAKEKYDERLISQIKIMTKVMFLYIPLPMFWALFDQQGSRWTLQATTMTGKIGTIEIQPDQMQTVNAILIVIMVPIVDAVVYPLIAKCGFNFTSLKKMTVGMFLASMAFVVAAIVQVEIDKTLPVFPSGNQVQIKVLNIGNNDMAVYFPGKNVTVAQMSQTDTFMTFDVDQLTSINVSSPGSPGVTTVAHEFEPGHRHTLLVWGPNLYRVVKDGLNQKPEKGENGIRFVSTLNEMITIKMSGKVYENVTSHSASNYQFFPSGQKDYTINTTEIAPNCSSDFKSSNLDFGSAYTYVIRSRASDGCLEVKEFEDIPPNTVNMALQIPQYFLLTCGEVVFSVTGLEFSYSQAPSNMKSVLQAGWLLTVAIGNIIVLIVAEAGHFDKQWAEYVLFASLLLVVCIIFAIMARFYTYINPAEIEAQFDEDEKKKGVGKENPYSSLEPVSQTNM

Activity	SMILES
substrate [+]	CC1=C(C(=O)O)N2C(=O)[C@@H](NC(=O)[C@H](N)c3ccccc3)[C@H]2SC1
substrate [+]	C=CC1=C(C(=O)O)N2C(=O)[C@@H](NC(=O)/C(=N\OCC(=O)O)c3csc(N)n3)[C@H]2SC1
substrate [+]	CC1=C(C(=O)O)N2C(=O)[C@@H](NC(=O)[C@H](N)c3ccc(O)cc3)[C@H]2SC1
